Experimental findings from ChEMBL document CHEMBL4418278, “Serine racemase inhibitor” (2014) are described below.

One assay concerns the target T1, Serine racemase (Homo sapiens) (UniProt Q9GZT4).
T1 sequence (whole entry): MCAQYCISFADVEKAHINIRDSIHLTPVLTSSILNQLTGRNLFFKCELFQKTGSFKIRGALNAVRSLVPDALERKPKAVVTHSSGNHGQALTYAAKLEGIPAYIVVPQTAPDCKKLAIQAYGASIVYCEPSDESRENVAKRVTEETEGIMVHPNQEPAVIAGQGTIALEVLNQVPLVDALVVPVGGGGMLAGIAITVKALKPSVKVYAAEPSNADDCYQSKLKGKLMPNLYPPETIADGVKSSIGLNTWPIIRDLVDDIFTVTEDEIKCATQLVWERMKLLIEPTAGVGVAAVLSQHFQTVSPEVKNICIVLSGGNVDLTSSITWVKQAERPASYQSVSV
Nature of the assay: Inhibition of recombinant human SRR expressed in Escherichia coli assessed as reduction in conversion of L-serine to D-serine at 0.1 mM incubated for => 8 hrs in presence of PLP and recombinant D-serine dehydratase 1 by spectrophotometry relative to control.
As to `C[C@@H](NC(=O)CNS(=O)(=O)Cc1ccccc1)c1ccccc1`, the inhibition (in general, the drop in the measured response relative to a control, in per cent) was 85%. Same read-out and setting: with `O=C(Cc1ccc(F)cc1)NNC(=S)NC(=O)Cc1ccc(F)cc1` the figure was 67%; with `O=C(CNS(=O)(=O)Cc1ccccc1)Nc1c(F)cccc1F`, 77%.

As to `Cc1ccc(/C=C/S(=O)(=O)NCC(=O)Nc2ccc(OCc3ccccc3)cc2)cc1`, the inhibition worked out at 63%. The same measure, in the same setting: with `Cc1ccc(S(=O)(=O)NCC(=O)NCc2ccc(Br)cc2F)cc1` the figure was 67%.

On to `COc1ccc(NC(=O)CNC(=O)COc2ccccc2)c(C)c1`, for which the inhibition amounted to 87%. The same measure, in the same setting: to `COc1ccc(S(=O)(=O)NCC(=O)Nc2cccc(Br)c2)cc1` belongs 59%; to `O=C(COc1ccc(Br)cc1)NCC(=O)NC1CCCCC1`, 99%. Same read-out and setting: with `O=C(CNS(=O)(=O)Cc1ccccc1)OCc1ccccc1` the figure was 65%.

Turning to `O=C(CNS(=O)(=O)c1ccc(Cl)cc1)Nc1ccccc1Br`, the inhibition was found to be 60%. Still for that read-out and setting: to `O=C(O)CC(=O)O` belongs 62 to 110%; to `Cc1ccc(S(=O)(=O)NCC(=O)Nc2cccc(Br)c2)cc1`, 52%. Still for that read-out and setting: to `O=C(CNS(=O)(=O)Cc1ccccc1)Nc1cccc(Br)c1` belongs 63%. The same measure, in the same setting: with `Cc1ccc(S(=O)(=O)NCC(=O)NCc2ccc(Br)cc2)cc1` the figure was 75%; with `Cc1ccc(S(=O)(=O)NCC(=O)OCc2ccccc2)cc1`, 84%. For the compound `Cc1ccc(S(=O)(=O)NCC(=O)Nc2cccc([N+](=O)[O-])c2)cc1`, the inhibition came out at 62%. Turning to `O=C(Cc1ccc(F)cc1)NNC(=S)NC(=O)CC1CCCCC1`, the inhibition was determined as 67%. Still for that read-out and setting: to `Cc1ccc(S(=O)(=O)NCC(=O)NNC(=O)Cc2ccc(F)cc2)cc1` belongs 60%. Still for that read-out and setting: to `O=C(Cc1ccc(F)cc1)NNC(=S)NC(=O)Cc1c(F)cccc1F` belongs 66%. On the same count and under the same terms, to `Cc1ccc(S(=O)(=O)NCC(=O)Nc2ccc(OCc3ccccc3)cc2)cc1` belongs 56%; to `Cc1ccc(S(=O)(=O)NCC(=O)N[C@@H](C)c2ccccc2)cc1`, 86%.

The target of a further assay is T1, Serine racemase (Homo sapiens). Nature of the assay: Inhibition of recombinant human SRR expressed in Escherichia coli assessed as reduction in conversion of L-serine to D-serine at 1 mM incubated for => 8 hrs in presence of PLP and recombinant D-serine dehydratase 1 by spectrophotometry relative to control.
Turning to `Cc1ccc(S(=O)(=O)NCCNC(=O)NS(=O)(=O)c2ccccc2C)cc1`, the inhibition was determined as 62%. In the case of `O=C(/C=C/c1ccc(F)cc1)NC(=S)NNC(=O)Cc1ccccc1`, the inhibition was determined as 45%.

Regarding `O=C(Cc1ccccc1)NNC(=S)NC(=O)Cc1ccccc1`, the inhibition turned out to be 41%. `Cc1ccc(S(=O)(=O)NCCNC(=O)Nc2ccccc2)cc1`: the inhibition was found to be 79%. Same read-out and setting: to `O=C(/C=C/c1cc(Br)cc(Br)c1)NC(=S)NNC(=O)c1cccs1` belongs 52%. The same measure, in the same setting: to `COc1ccc(NC(=O)CNC(=O)COc2ccccc2)c(C)c1` belongs 62%; to `COc1ccccc1NC(=S)NCCNS(=O)(=O)c1ccc(C)cc1`, 76%. Still for that read-out and setting: to `COc1cccc(OC)c1/C=C/C(=O)NC(=S)NNC(=O)Cc1ccccc1` belongs 24%; to `O=C(COc1ccc(Br)cc1)NCC(=O)NC1CCCCC1`, 53%. As for `COc1ccc(S(=O)(=O)NCCNC(=O)Nc2ccc(Cl)c(Cl)c2)cc1`, the inhibition was found to be 61%. On the same count and under the same terms, to `Cc1ccc(S(=O)(=O)NCCNC(=O)Nc2ccc(Br)cc2Cl)cc1` belongs 57%. The same measure, in the same setting: with `COc1cccc(CC(=O)NNC(=S)NC(=O)/C=C/c2cc(Br)cc(Br)c2)c1` the figure was 31%; with `Cc1cccc(CC(=O)NNC(=S)NC(=O)/C=C/c2cc(Br)cc(Br)c2)c1`, 24%. The same measure, in the same setting: to `COc1ccc(/C=C/C(=O)NC(=S)NNC(=O)Cc2cccs2)c(OC)c1` belongs 27%; to `O=C(/C=C/c1cc(Br)cc(Br)c1)NC(=S)NNC(=O)Cc1ccc(F)cc1`, 49%; to `Cc1ccc(S(=O)(=O)NCCNC(=S)Nc2ccccc2Cl)cc1`, 69%. For the compound `O=C(O)CC(=O)O`, the inhibition was in the range of 54 to 85%. `Cc1ccc(S(=O)(=O)NCCNC(=S)Nc2ccccc2C)cc1`: the inhibition was determined as 58%. For the compound `O=C(/C=C/c1c(F)cc(F)cc1F)NC(=S)NNC(=O)Cc1ccccc1`, the inhibition worked out at 33%.

Regarding `O=C(/C=C/c1cc(Br)cc(Br)c1)NC(=S)NNC(=O)CCc1ccccc1`, the inhibition was found to be 31%. For `O=C(/C=C/c1ccc(-c2ccccc2)cc1)NC(=S)NNC(=O)Cc1cccs1`, the inhibition is 55%.

For the compound `O=C(Cc1ccc(F)cc1)NNC(=S)NC(=O)Cc1ccccc1`, the inhibition is 0%. Regarding `COc1cccc(NC(=O)NCCNS(=O)(=O)c2ccc(C)cc2)c1`, the inhibition was found to be 64%.

Take `O=C(/C=C/c1c(Cl)cc(Cl)cc1Cl)NC(=S)NNC(=O)Cc1cccs1`: the inhibition came to 33%. On to `Cc1ccc(S(=O)(=O)NCCNC(=O)Nc2ccc(F)cc2)cc1`, for which the inhibition was determined as 76%. Same read-out and setting: to `Cc1cccc(CC(=O)NNC(=S)NC(=O)Cc2ccccc2)c1` belongs 45%; to `O=C(/C=C/c1ccc([N+](=O)[O-])cc1)NC(=S)NNC(=O)Cc1cccs1`, 35%. Still for that read-out and setting: to `Cc1ccc(S(=O)(=O)Nc2ccccc2NC(=O)Nc2ccc(F)cc2)cc1` belongs 54%; to `O=C(Cc1cc(F)cc(F)c1)NNC(=S)NC(=O)Cc1ccccc1`, 67%. Consider `O=C(/C=C/c1cc(Br)cc(Br)c1)NC(=S)NNC(=O)Cc1ccccc1`, for which the inhibition turned out to be 20%. On the same count and under the same terms, to `COc1ccc(C)cc1NC(=S)NCCNS(=O)(=O)c1ccc(C)cc1` belongs 63%; to `O=C(CCc1ccccc1)NNC(=S)NC(=O)Cc1ccccc1`, 70%. The same measure, in the same setting: with `O=C(/C=C/c1ccc(C(F)(F)F)cc1)NC(=S)NNC(=O)Cc1cccs1` the figure was 44%; with `COCCCNC(=S)NCCNS(=O)(=O)c1ccc(C)cc1`, 86%; with `O=C(/C=C/c1ccc(F)cc1)NC(=S)NNC(=O)c1cccs1`, 46%. Same read-out and setting: with `O=C(Cc1cccs1)NNC(=S)NC(=O)Cc1ccccc1` the figure was 61%; with `O=C(/C=C/c1ccc(Cl)cc1)NC(=S)NNC(=O)Cc1cccs1`, 23%; with `O=C(Cc1c(F)cccc1F)NNC(=S)NC(=O)Cc1ccccc1`, 74%.

In the case of `Cc1ccc(S(=O)(=O)NCCNC(=O)Nc2ccc(Cl)cc2Cl)cc1`, the inhibition is 59%. On the same count and under the same terms, to `O=C(NCCCNS(=O)(=O)c1ccc(Br)cc1)Nc1ccc(Cl)c(Cl)c1` belongs 55%; to `Cc1ccc(S(=O)(=O)NCCNC(=O)Nc2ccc(Cl)c(Cl)c2)cc1`, 52%. The same measure, in the same setting: to `COc1cccc(OC)c1/C=C/C(=O)NC(=S)NNC(=O)c1cccs1` belongs 31%. On the same count and under the same terms, to `O=C(/C=C/c1cc(Br)cc(Br)c1)NC(=S)NNC(=O)c1ccccc1` belongs 31%; to `Cc1ccc(S(=O)(=O)Nc2ccccc2NC(=O)Nc2ccc(Cl)c(Cl)c2)cc1`, 49%. With `O=C(/C=C/c1cc(Br)cc(Br)c1)NC(=S)NNC(=O)Cc1cccs1`, the inhibition was found to be 28%. On to `O=C(NCCNS(=O)(=O)c1ccc(Br)cc1)Nc1ccc(Cl)c(Cl)c1`, for which the inhibition amounted to 49%. Same read-out and setting: to `Cc1ccc(/C=C/C(=O)NC(=S)NNC(=O)Cc2cccs2)cc1` belongs 24%; to `COc1ccc(S(=O)(=O)NCCCNC(=O)Nc2ccc(Cl)c(Cl)c2)cc1`, 55%.
